According to publication doi:10.1101/2022.02.04.479134, “A Suite of TMPRSS2 Assays for Screening Drug Repurposing Candidates as Potential Treatments of COVID-19” (bioRxiv, 2022):
Entries after “also recorded” stand apart in the source; their conditions may differ. Where a name gives a salt, the structure may show the parent alone. Read-outs that look alike come from different tables or passages of the source.

How the values were obtained:
[1] = test system: SARS-CoV-2 spike pseudotyped particles (Delta variant B.1.617.2) entry into Calu-3 cells; test: microbe, parasite or virus in culture; format: cell-based; conditions: for inhibition of pseudotyped particle entry: variant not stated; for Emax: Severe acute respiratory syndrome coronavirus 2, Calu-3, read-out: SARS-CoV-2 PP (Delta) Max Response; for AC50: 48 h, N/D = Not Detected, read-out: SARS-CoV-2 PP (Delta) AC50; for SARS-CoV-2 PP (Delta) Max Response: PP wells 0%, bald PP −100%
[2] = test system: SARS-CoV-2 spike pseudotyped particles (WA1 + D614G) entry into Calu-3 cells; format: cell-based; conditions: for AC50: read-out: SARS-CoV-2 PP (WA1 + D614G) AC50
[3] = Severe acute respiratory syndrome coronavirus 2, Calu-3 cells
[4] = Calu-3 cells, read-out: IC50 Delta pseudotyped particle entry
[5] = Severe acute respiratory syndrome coronavirus 2, Calu-3, read-out: IC50 Delta pseudotyped particle entry, Calu-3 cells
[6] = Severe acute respiratory syndrome coronavirus 2, Calu-3, variant not given, matches Delta values, read-out: IC50 blocking of entry into Calu-3 cells using pseudotyped particles with SARS-CoV-2 spike protein

In the case of `O=c1ccc2ccc(O)cc2o1` [7-Hydroxycoumarin], the “inhibition of pseudotyped particle entry” value ([1]; Calu-3 cells) is reported as “lack of activity; also recorded: nor any inhibition of pseudotyped particle entry”.
`CC(C)C[C@H](NC(=O)[C@H](Cc1ccccc1)NC(=O)c1cnccn1)B(O)O` [Bortezomib] gave an IC50 ([1]; Severe acute respiratory syndrome coronavirus 2, Calu-3, Calu-3 cells, apparent, due to cytotoxicity, read-out: IC50 inhibition of viral entry (variant not stated)) of under 0.05 µM, an Emax [1] of -100% and an AC50 [1, 3] of under 0.05 µM. For the same compound, the “SARS-CoV-2 PP (WA1 + D614G) Max Response” value [2] was -100% and the AC50 [2] was under 0.05 µM.
`CN(C)C(=O)COC(=O)Cc1ccc(OC(=O)c2ccc(NC(=N)N)cc2)cc1` [Camostat] was tested, and the IC50 [1, 4] was 0.059 µM, the IC50 [1, 5] was 0.0588 µM and the Emax [1] was -92%. The AC50 [1, 3] was 0.059 µM, the “SARS-CoV-2 PP (WA1 + D614G) Max Response” value [2] was -95% and the IC50 ([2]; read-out: IC50 WA1 + D614G pseudotyped particle entry) was 0.05 µM. The AC50 [2] was 0.05 µM.
`NC[C@H]1CC[C@H](C(=O)Oc2ccc(CCC(=O)O)cc2)CC1` [Cetraxate HCl] showed an Emax [1] of 30% and an AC50 [1, 3] of 23.3 µM.
In the case of `N=C(N)c1cccc(CC(NS(=O)(=O)c2cccc(-c3ccc(Cl)cc3Cl)c2)C(=O)N2CCC(CCN)CC2)c1` (centres unmarked) [Cmpd 92 (Meyer)], the Emax [1] is reported as 92%, the IC50 [1, 6] is reported as 4 µM and the AC50 [1, 3] is reported as 3.98 µM. The “SARS-CoV-2 PP (WA1 + D614G) Max Response” value [2] was -70% and the AC50 [2] was 2.05 µM.
For `N=C(N)c1cccc(CC(NS(=O)(=O)c2cccc(-c3ccc(Cl)cc3Cl)c2)C(=O)N2CCC(NC(=O)NC3CCCCC3)CC2)c1` (centres unmarked) [Cmpd 114 (Meyer)], the Emax [1] was 99%, the IC50 [1, 6] was 15 µM and the AC50 [1, 3] was 15.3 µM. The “SARS-CoV-2 PP (WA1 + D614G) Max Response” value [2] was -88% and the AC50 [2] was 5.35 µM.
For `COC(=O)N[C@H](C(=O)N1CCC[C@H]1c1nc(-c2ccc(-c3ccc(-c4c[nH]c([C@@H]5CCCN5C(=O)[C@@H](NC(=O)OC)C(C)C)n4)cc3)cc2)c[nH]1)C(C)C` [Daclatasvir dihydrochloride], the Emax [1] was -100%, the AC50 [1, 3] was 32.9 µM and the “SARS-CoV-2 PP (WA1 + D614G) Max Response” value [2] was -100%. The AC50 [2] was 39 µM.
For `CCOC(=O)c1ccc(OC(=O)CCCCCNC(=N)N)cc1` [Gabexate mesilate], the “inhibition of pseudotyped particle entry” value ([1]; Calu-3 cells) was “inactive”.
With `N=C(N)c1ccc2cc(OC(=O)c3ccc(N=C(N)N)cc3)ccc2c1` [Nafamostat mesilate] the IC50 [1, 4] was 0.0014 µM, the IC50 [1, 5] was 0.00142 µM and the Emax [1] was -100%. For the same compound, the AC50 [1, 3] was 0.0014 µM and the “SARS-CoV-2 PP (WA1 + D614G) Max Response” value [2] was -100%.
For `COC(=O)[C@H](Cc1cccc(C(=N)N)c1)[C@@H](C)NC(=O)c1ccc(-c2cc[n+]([O-])cc2)cc1` [Otamixaban], the Emax [1] was 54%, the AC50 [1, 3] was 18 µM and the “SARS-CoV-2 PP (WA1 + D614G) Max Response” value [2] was -50%. The AC50 [2] was 20 µM.
In the case of `N=C(N)c1ccc2nc(-c3cc(CC(=O)N[C@@H](CC(=O)O)C(=O)O)cc(-c4cc(S(N)(=O)=O)ccc4O)c3O)[nH]c2c1` [PCI-27483], the Emax [1] is reported as -66%, the AC50 [1, 3] is reported as 15.8 µM and the “SARS-CoV-2 PP (WA1 + D614G) Max Response” value [2] is reported as -66%. For the same compound, the AC50 [2] was 16.5 µM.
AGN194310 was tested, and the AC50 ([1]; Calu-3 cells) was 38.4 µM, the “SARS-CoV-2 PP (Delta) Max Response” value ([1]; Calu-3 cells) was -86% and the “SARS-CoV-2 PP (WA1 + D614G) Max Response” value [2] was -87%. It also gave an AC50 [2] of 22 µM.
For Dibromopropamidine Dihydrochloride, the AC50 ([1]; Calu-3 cells) was 19.2 µM, the “SARS-CoV-2 PP (Delta) Max Response” value ([1]; Calu-3 cells) was -49% and the “SARS-CoV-2 PP (WA1 + D614G) Max Response” value [2] was -44%. It also gave an AC50 [2] of 19.5 µM.
For G-007-LK, the AC50 ([1]; Calu-3 cells) was 1 µM, the “SARS-CoV-2 PP (Delta) Max Response” value ([1]; Calu-3 cells) was -67% and the “SARS-CoV-2 PP (WA1 + D614G) Max Response” value [2] was -73%. For the same compound, the AC50 [2] was 0.5 µM.
In the case of Marizomib / Salinosporamide A, the AC50 ([1]; Calu-3 cells) is reported as under 0.05 µM, the “SARS-CoV-2 PP (Delta) Max Response” value ([1]; Calu-3 cells) is reported as -100% and the “SARS-CoV-2 PP (WA1 + D614G) Max Response” value [2] is reported as -100%. For the same compound, the AC50 [2] was under 0.05 µM.
